Laboratory results taken from US10772893B2, “2-(morpholin-4-yl)-1,7-naphthyridines” (BAYER PHARMA AKTIENGESELLSCHAFT, priority 2014, dated 2020).
Read-outs that look alike come from different tables or passages of the source.

Test system: HeLa cells
Experiment: Proliferation assay, crystal violet staining
Conditions: Homo sapiens, 96 h
[1] = read-out: Inhibition of HeLa cell proliferation, HeLa cells, 4 days incubation

Procedure: After 24 hours, the cells of one plate (zero plate) were dyed with crystal violet (see below), whereas the medium of the other plates was replaced with fresh culture medium (200 μl) to which the test substances were added in various concentrations (0 μM, and also in the range of 0.001-10 μM; the final concentration of the solvent dimethyl sulphoxide was 0.1 or 0.5%). The cells were incubated for 4 days in the presence of the test substances. […] After washing the fixed cells three times with water, the plates were dried at room temperature. The cells were stained by adding 100 μl/measurement point of a 0.1% strength crystal violet solution (pH adjusted to pH 3 by adding acetic acid). After washing the cells three times with water, the plates were dried at room temperature. The dye was dissolved by adding 100 μl/measurement point of a 10% strength acetic acid solution. […] The percentage change in cell growth was calculated by normalizing the measured values to the absorbance values of the zero plate (=0%) and the absorbance of the untreated (0 W) cells (=100%). The IC50 values were determined by means of a four parameter fit.

| SMILES | IC50 [1] [nM] | IC50 (read-out: Inhibition of HeLa cell proliferation) [nM] |
| --- | --- | --- |
| C[C@@H]1COCCN1c1cc(-c2cccc(S(C)(=O)=O)c2F)c2ccnc(-c3ccn[nH]3)c2n1 [Example 132, 4-[2-fluoro-3-(methylsulfonyl)phenyl]-2-[(3R)-3-methylmorpholin-4-yl]-8-(1H-pyrazol-5-yl)-1,7-naphthyridine] | 507 |  |
| C[C@@H]1COCCN1c1cc(-c2ccnn2C2COC2)c2ccnc(-c3ccn[nH]3)c2n1 [Example 133, 2-[(3R)-3-methylmorpholin-4-yl]-4-[1-(oxetan-3-yl)-1H-pyrazol-5-yl]-8-(1H-pyrazol-5-yl)-1,7-naphthyridine] | 1070 |  |
| C[C@@H]1COCCN1c1cc(-c2ccc(N3CCCC3)cc2F)c2ccnc(-c3ccn[nH]3)c2n1 [Example 134, 4-[2-fluoro-4-(pyrrolidin-1-yl)phenyl]-2-[(3R)-3-methylmorpholin-4-yl]-8-(1H-pyrazol-5-yl)-1,7-naphthyridine] | 1530 |  |
| C[C@@H]1COCCN1c1cc(N=S(C)(=O)c2ccc(F)cc2)c2ccnc(-c3ccn[nH]3)c2n1 (stereo partly drawn) [Example 138, 4-{[(4-fluorophenyl)(methyl)oxido-λ^6-sulfanylidene]amino}-2-[(3R)-3-methylmorpholin-4-yl]-8-(1H-pyrazol-5-yl)-1,7-naphthyridine] | 619 |  |
| C[C@@H]1COCCN1c1cc(N=S(C)(=O)c2ccccc2F)c2ccnc(-c3ccn[nH]3)c2n1 (stereo partly drawn) [Example 139, 4-{[(2-fluorophenyl)(methyl)oxido-λ^6-sulfanylidene]amino}-2-[(3R)-3-methylmorpholin-4-yl]-8-(1H-pyrazol-5-yl)-1,7-naphthyridine] | 1370 |  |
| CCOP(=O)(CC(C)C)c1cc(N2CCOC[C@H]2C)nc2c(-c3ccn[nH]3)nccc12 (stereo partly drawn) [Example 144, ethyl isobutyl{2-[(3R)-3-methylmorpholin-4-yl]-8-(1H-pyrazol-5-yl)-1,7-naphthyridin-4-yl}phosphinate] |  | > 3000 |
| C[C@@H]1COCCN1c1cc(-c2cnc(S(C)(=O)=O)c(F)c2)c2ccnc(-c3ccn[nH]3)c2n1 [Example 147, 4-[5-fluoro-6-(methylsulfonyl)pyridin-3-yl]-2-[(3R)-3-methylmorpholin-4-yl]-8-(1H-pyrazol-5-yl)-1,7-naphthyridine] | 953 |  |
| C[C@@H]1CN(c2cc(N3CCOCC3)nc3c(-c4ccn[nH]4)nccc23)CCO1 [Example 162, 4-[(2R)-2-methylmorpholin-4-yl]-2-(morpholin-4-yl)-8-(1H-pyrazol-5-yl)-1,7-naphthyridine] | 1220 |  |
| C[C@H]1CN(c2cc(N3CCOCC3)nc3c(-c4ccn[nH]4)nccc23)CCO1 [Example 170, 4-[(2S)-2-methylmorpholin-4-yl]-2-(morpholin-4-yl)-8-(1H-pyrazol-5-yl)-1,7-naphthyridine] | 2410 |  |
| CC(C)(O)c1cc(N2CCOCC2)nc2c(-c3ccn[nH]3)nccc12 [Example 173, 2-[2-(morpholin-4-yl)-8-(1H-pyrazol-5-yl)-1,7-naphthyridin-4-yl]propan-2-ol] | > 3000 |  |
| O=C1CN(c2cc(N3CCOCC3)nc3c(-c4ccn[nH]4)nccc23)CCN1 [Example 176, 4-[2-(morpholin-4-yl)-8-(1H-pyrazol-5-yl)-1,7-naphthyridin-4-yl]piperazin-2-one] | 2520 |  |
| C[C@@H]1CN(c2cc(N3CCOCC3)nc3c(-c4ccn[nH]4)nccc23)C[C@H](C)N1 [Example 179, 4-[(cis)-3,5-dimethylpiperazin-1-yl]-2-(morpholin-4-yl)-8-(1H-pyrazol-5-yl)-1,7-naphthyridine] | > 3000 |  |
| c1cc(-c2nccc3c(N4C[C@@H]5C[C@H]4CO5)cc(N4CCOCC4)nc23)[nH]n1 [Example 185, 2-(morpholin-4-yl)-4-[(1S,4S)-2-oxa-5-azabicyclo[2.2.1]hept-5-yl]-8-(1H-pyrazol-5-yl)-1,7-naphthyridine] | > 3000 |  |
| CS(=O)(=NC#N)c1ccc(-c2cc(N3CCOCC3)nc3c(-c4ccn[nH]4)nccc23)cc1 (stereo not drawn) [Example 191, (methyl{4-[2-(morpholin-4-yl)-8-(1H-pyrazol-5-yl)-1,7-naphthyridin-4-yl]phenyl}oxido-λ^6-sulfanylidene)cyanamide] | 2120 |  |
| CC[S+]([O-])c1cc(N2CCOCC2)nc2c(-c3ccn[nH]3)nccc12 (stereo not drawn) [Example 195, 4-ethylsulfinyl-2-(morpholin-4-yl)-8-(1H-pyrazol-5-yl)-1,7-naphthyridine] | 3010 |  |

More lines, main results first:

| IC50 [1] [nM] | SMILES | IC50 (read-out: Inhibition of HeLa cell proliferation) [nM] |
| --- | --- | --- |
| 686 | CCC(O)(CC)c1cc(N2CCOC[C@H]2C)nc2c(-c3ccn[nH]3)nccc12 [Example 129, 3-{2-[(3R)-3-methylmorpholin-4-yl]-8-(1H-pyrazol-5-yl)-1,7-naphthyridin-4-yl}pentan-3-ol] |  |
| 374 | C[C@@H]1COCCN1c1cc(-c2cncc(Cl)c2)c2ccnc(-c3ccn[nH]3)c2n1 [Example 130, 4-(5-chloropyridin-3-yl)-2-[(3R)-3-methylmorpholin-4-yl]-8-(1H-pyrazol-5-yl)-1,7-naphthyridine] |  |
| 349 | C[C@@H]1COCCN1c1cc(-c2ccc(F)cc2N)c2ccnc(-c3ccn[nH]3)c2n1 [Example 131, 5-fluoro-2-{2-[(3R)-3-methylmorpholin-4-yl]-8-(1H-pyrazol-5-yl)-1,7-naphthyridin-4-yl}aniline] |  |
| 1820 | COCc1noc(C)c1-c1cc(N2CCOC[C@H]2C)nc2c(-c3ccn[nH]3)nccc12 [Example 135, 4-[3-(methoxymethyl)-5-methyl-1,2-oxazol-4-yl]-2-[(3R)-3-methylmorpholin-4-yl]-8-(1H-pyrazol-5-yl)-1,7-naphthyridine] |  |
| 575 | Cc1nnc(-c2cc(N3CCOC[C@H]3C)nc3c(-c4ccn[nH]4)nccc23)o1 [Example 136, 2-[(3R)-3-methylmorpholin-4-yl]-4-(5-methyl-1,3,4-oxadiazol-2-yl)-8-(1H-pyrazol-5-yl)-1,7-naphthyridine] |  |
| 1590 | C[C@@H]1COCCN1c1cc(P(C)(C)=O)c2ccnc(-c3ccn[nH]3)c2n1 [Example 142, 4-(dimethylphosphoryl)-2-[(3R)-3-methylmorpholin-4-yl]-8-(1H-pyrazol-5-yl)-1,7-naphthyridine] |  |
| 543 | CCP(=O)(CC)c1cc(N2CCOC[C@H]2C)nc2c(-c3ccn[nH]3)nccc12 [Example 143, 4-(diethylphosphoryl)-2-[(3R)-3-methylmorpholin-4-yl]-8-(1H-pyrazol-5-yl)-1,7-naphthyridine] |  |
| 1110 | CC(C)Cn1nccc1-c1cc(N2CCOC[C@H]2C)nc2c(-c3ccn[nH]3)nccc12 [Example 146, 4-(1-isobutyl-1H-pyrazol-5-yl)-2-[(3R)-3-methylmorpholin-4-yl]-8-(1H-pyrazol-5-yl)-1,7-naphthyridine] |  |
| 805 | C[C@@H]1COCCN1c1cc(N2CCOCC2)nc2c(-c3ccn[nH]3)nccc12 [Example 148, 4-[(3R)-3-methylmorpholin-4-yl]-2-(morpholin-4-yl)-8-(1H-pyrazol-5-yl)-1,7-naphthyridine] |  |
| 671 | C[C@@H]1COCCN1c1cc(-c2cccc(F)n2)c2ccnc(-c3ccn[nH]3)c2n1 [Example 152, 4-(6-fluoropyridin-2-yl)-2-[(3R)-3-methylmorpholin-4-yl]-8-(1H-pyrazol-5-yl)-1,7-naphthyridine] |  |
| 759 | CCn1cnc(-c2cc(N3CCOC[C@H]3C)nc3c(-c4ccn[nH]4)nccc23)c1 [Example 153, 4-(1-ethyl-1H-imidazol-4-yl)-2-[(3R)-3-methylmorpholin-4-yl]-8-(1H-pyrazol-5-yl)-1,7-naphthyridine] |  |
| 959 | C[C@@H]1COCCN1c1cc(-c2cccnc2N)c2ccnc(-c3ccn[nH]3)c2n1 [Example 155, 3-{2-[(3R)-3-methylmorpholin-4-yl]-8-(1H-pyrazol-5-yl)-1,7-naphthyridin-4-yl}pyridin-2-amine] |  |
| 328 | C[C@@H]1COCCN1c1cc(-c2ccn(CCF)n2)c2ccnc(-c3ccn[nH]3)c2n1 [Example 158, 4-[1-(2-fluoroethyl)-1H-pyrazol-3-yl]-2-[(3R)-3-methylmorpholin-4-yl]-8-(1H-pyrazol-5-yl)-1,7-naphthyridine] |  |
| 61.6 | C[C@@H]1COCCN1c1cc(-c2ccnn2CCF)c2ccnc(-c3ccn[nH]3)c2n1 [Example 159, 4-[1-(2-fluoroethyl)-1H-pyrazol-5-yl]-2-[(3R)-3-methylmorpholin-4-yl]-8-(1H-pyrazol-5-yl)-1,7-naphthyridine] |  |
| 451 | C[C@@H]1COCCN1c1cc(-c2ccn(CCO)n2)c2ccnc(-c3ccn[nH]3)c2n1 [Example 160, 2-(3-{2-[(3R)-3-methylmorpholin-4-yl]-8-(1H-pyrazol-5-yl)-1,7-naphthyridin-4-yl}-1H-pyrazol-1-yl)ethanol] |  |
| 588 | C[C@@H]1COCCN1c1cc(-c2ccn(CC(C)(C)O)n2)c2ccnc(-c3ccn[nH]3)c2n1 [Example 161, 2-methyl-1-(3-{2-[(3R)-3-methylmorpholin-4-yl]-8-(1H-pyrazol-5-yl)-1,7-naphthyridin-4-yl}-1H-pyrazol-1-yl)propan-2-ol] |  |
| 2100 | C[C@@H]1COCCN1c1cc(OC(F)F)c2ccnc(-c3ccn[nH]3)c2n1 [Example 172, 4-(difluoromethoxy)-2-[(3R)-3-methylmorpholin-4-yl]-8-(1H-pyrazol-5-yl)-1,7-naphthyridine] |  |
| > 3000 | CP(C)(=O)c1cc(N2CCOCC2)nc2c(-c3ccn[nH]3)nccc12 [Example 177, 4-(dimethylphosphoryl)-2-(morpholin-4-yl)-8-(1H-pyrazol-5-yl)-1,7-naphthyridine] |  |
| 789 | CSCc1cc(N2CCOC[C@H]2C)nc2c(-c3ccn[nH]3)nccc12 [Example 186, 2-[(3R)-3-methylmorpholin-4-yl]-4-[(methylsulfanyl)methyl]-8-(1H-pyrazol-5-yl)-1,7-naphthyridine] |  |
| 1010 | C[C@@H]1COCCN1c1cc(C2(O)CCCCC2)c2ccnc(-c3ccn[nH]3)c2n1 [Example 189, 1-{2-[(3R)-3-methylmorpholin-4-yl]-8-(1H-pyrazol-5-yl)-1,7-naphthyridin-4-yl}cyclohexanol] |  |
| 892 | C[C@@H]1COCCN1c1cc(-c2[nH]nnc2C2CC2)c2ccnc(-c3ccn[nH]3)c2n1 [Example 194, 4-(4-cyclopropyl-1H-1,2,3-triazol-5-yl)-2-[(3R)-3-methylmorpholin-4-yl]-8-(1H-pyrazol-5-yl)-1,7-naphthyridine] |  |
